In US8716180B2 (priority 2005, dated 2014):
Read-outs that look alike come from different tables or passages of the source.

Tested on: GFP genetically modified strain of F. graminearum
Type: in vivo, Fusarium graminearum
Details: seed treatment 5 g a.i./100 kg seeds

Measured: Intensity of F. graminearum (PCR analysis: 0 to 4 scale)

N#Cc1c[nH]cc1-c1cccc2c1OC(F)(F)O2 [Lot B, fludioxonil]
0: Beginning of earing (GS 51), 1st internode | Beginning of earing (GS 51), 2nd internode | Beginning of earing (GS 51), 3rd internode | Beginning of earing (GS 51), 4th internode | Beginning of earing (GS 51), ear | Ear 1-2 cm (GS 31), First internode | Ear 1-2 cm (GS 31), Future internodes and ear | Ear 1-2 cm (GS 31), Second internode | End of tillering (GS 29), Above bottom of the plant (0.5 cm) | End of tillering (GS 29), Bottom of the plant (0.5 cm) | End of tillering (GS 29), Secondary roots | End of tillering (GS 29), primary roots | End of tillering (GS 29), rhizome | Full maturity (GS 94), 1st internode | Full maturity (GS 94), 2nd internode | Full maturity (GS 94), 3rd internode | Full maturity (GS 94), 4th internode | Full maturity (GS 94), 5th internode | Full maturity (GS 94), Ear + grains
